Source: publication PMC3144492 (Biochemistry, 2011)

Tested on: SpUP
Settings: 50 mM phosphate (co-substrate), 50 mM HEPES, pH 7.5

O=c1ccn([C@@H]2O[C@H](CO)[C@@H](O)[C@H]2O)c(=O)[nH]1 [uridine]
Km: 171 ± 5 µM
